According to patent publication US12221459B2, “Cancer treatment with (2,2-bishydroxymethyl) methylenecyclopropane nucleotides” (MEDIVIR AB, priority 2018, dated 2025):
Where two headings read alike, the source gives them in different places.

How the values were obtained:
[1] = system: THP-1 (human acute monocytic leukemia); assay: Leukemia cell line activity assay (Cell Counting Kit-8, 5 days), THP-1
Procedure: (§1) Compounds of the invention were evaluated for activity against the leukemia cell lines THP-1, EOL-1 and MV4-11, using the following assay:
(§2) Test compounds were made up to 10 mM stock solution in DMSO
(§3) Leukemia cells (THP-1, EOL-1 and MV4-11) were grown in a cell culture flask 75 cm^2 with approximately 100 ml complete cell medium. The cells were counted using a Scepter-hand held automated cell counter, using 60 μm sensors (Millipore) and suspended in complete cell medium to 2×10^5 cells. 100 μl of the cell suspension were seeded to all wells (2×10^4 cells/well).
(§4) The compounds were tested in twelve concentrations, 10-fold serial dilutions, 50 μM-5×10^−10 μM.
(§5) 100 μl from a compound dilution plate were transferred to the cell assay plate=200 μl/well total volume and incubated for 5 days, at 37° C., 5% CO2 incubator.
(§6) After 5 days, 10l of KIT-8 was added and the culture was incubated for 3-4 hours, at 37° C., 5% CO2 incubator.
(§7) Plate were read in the spectrophotometer at wavelength 450 nm with a reference filter of 620 nm.
(§8) CC50 values are calculated by plotting the degree of inhibition (compared to the vehicle ctrl) against the logarithm of the compound concentration. Result values in the dilution series are fitted to a 4-parameter sigmoidal dose-response curve described by the expression: F(x)=D+(A−D)/(1+(x/C)^B) where: • A=Minimum • B=Slope. • C=Inflection point. The inflection point is defined as the point on the curve where the curvature changes direction or signs. • D=Maximum • F=fraction inhibition

[2] = system: MV4-11 cells, human B-myelomonocytic leukemia; assay: Leukemia cell line activity assay (Cell Counting Kit-8, 5 days), MV4-11
Procedure: as §1, §2, §3, §4, §5, §6, §7, §8

[3] = Homo sapiens, THP-1, 120 h, read-out: THP-1 CC50, THP-1 cells, 5 days incubation
[4] = Homo sapiens, MV4-11, 120 h, read-out: MV4-11 CC50, MV4-11 cells, 5 days incubation

Structure (SMILES) | CC50 [1, 3] [nM] | CC50 [2, 4] [nM] | CC50 ([1]; read-out: THP-1 CC50, THP-1 cells, 5 days incubation) [nM] | CC50 ([2]; read-out: MV4-11 CC50, MV4-11 cells, 5 days incubation) [nM]
CCC[C@H](C)OC(=O)[C@H](C)N[P@](=O)(OCC1(COC(=O)C(C)C)C/C1=C/n1ccc(N)nc1=O)Oc1ccccc1 (single isomer, unassigned) [Example 28-2] | 880 | 1000 |  | 
CCCC(CCC)COC(=O)[C@H](C)N[P@](=O)(OCC1(COC(=O)C(C)C)C/C1=C/n1ccc(N)nc1=O)Oc1ccccc1 (single isomer, unassigned) [Example 16-1] | 350 | 190 |  | 
CCC(CC)COC(=O)C[C@H](N[P@](=O)(OCC1(COC(=O)C(C)C)C/C1=C/n1cnc2c(=O)[nH]c(N)nc21)Oc1ccccc1)C(=O)OCC(CC)CC (single isomer, unassigned) [Example 35-1] | 290 | 180 |  | 
CCCC(CCC)COC(=O)[C@H](C)N[P@](=O)(OC[C@@]1(COC(C)=O)C/C1=C/n1cnc2c(=O)[nH]c(N)nc21)Oc1ccccc1 [Example 13-1, (S)-2-propylpentyl 2-(((S)-(((S,Z)-1-(acetoxymethyl)-2-((2-amino-6-oxo-1H-purin-9(6H)-yl)methylene)cyclopropyl)methoxy)(phenoxy)phosphoryl)amino)propanoate] | 870 | 1100 |  | 
CCCCCCCCCCCCCCCCCC(=O)OCC1(CO[P@@](=O)(N[C@@H](C)C(=O)O[C@@H](C)CCC)Oc2ccccc2)C/C1=C/n1cnc2c(=O)[nH]c(N)nc21 (stereo partly drawn) [Example 24, ((Z)-2-((2-amino-6-oxo-1,6-dihydro-9H-purin-9-yl)methylene)-1-((((S)-(((S)-1-oxo-1-(((S)-pentan-2-yl)oxy)propan-2-yl)amino)(phenoxy)phosphoryl)oxy)methyl)cyclopropyl)methyl stearate] | 3800 | 2100 |  | 
CCC(CC)COC(=O)[C@H](CC(C)C)N[P@](=O)(OCC1(COC(=O)C(C)C)C/C1=C/n1cnc2c(=O)[nH]c(N)nc21)Oc1ccccc1 (single isomer, unassigned) [Example 21-2] | 390 | 510 |  | 
CCC[C@H](C)OC(=O)[C@H](C)N[P@](=O)(OC[C@@]1(COC(=O)[C@@H](N)C(C)C)C/C1=C/n1cnc2c(=O)[nH]c(N)nc21)Oc1ccccc1 [Example 15-1, (S)-((S,Z)-2-((2-amino-6-oxo-1H-purin-9(6H)-yl)methylene)-1-((((S)-(((S)-1-oxo-1-((S)-pentan-2-yloxy)propan-2-yl)amino)(phenoxy)phosphoryl)oxy)methyl)cyclopropyl)methyl 2-amino-3-methylbutanoate] | 1000 |  |  | 
CCCC(CCC)COC(=O)[C@H](C)N[P@](=O)(OCC1(COC(=O)C(C)C)C/C1=C/n1cc(F)c(N)nc1=O)Oc1ccccc1 (single isomer, unassigned) [Example 39-2] | 600 | 2600 |  | 
CCCC(=O)OCC1(CO[P@@](=O)(N[C@@H](C)C(=O)OCC(CCC)CCC)Oc2ccccc2)C/C1=C/n1ccc(N)nc1=O (single isomer, unassigned) [Example 45-2] |  |  | 2000 | 2200
CCC(CC)COC(=O)[C@H](Cc1ccccc1)N[P@](=O)(OCC1(COC(=O)[C@@H](N)C(C)C)C/C1=C/n1cnc2c(=O)[nH]c(N)nc21)Oc1ccccc1 (stereo partly drawn) [Example 23, ((Z)-2-((2-amino-6-oxo-1,6-dihydro-9H-purin-9-yl)methylene)-1-((((S)-(((S)-1-(2-ethylbutoxy)-1-oxo-3-phenylpropan-2-yl)amino)(phenoxy)phosphoryl)oxy)methyl)cyclopropyl)methyl L-valinate] | 2400 | 850 |  | 
CCCC(=O)OCC1(CO[P@@](=O)(N[C@@H](C)C(=O)OCC(CCC)CCC)Oc2ccccc2)C/C1=C/n1cc(F)c(N)nc1=O (stereo partly drawn) [Example 40, ((Z)-2-((4-amino-5-fluoro-2-oxopyrimidin-1(2H)-yl)methylene)-1-((((S)-(((S)-1-oxo-1-((2-propylpentyl)oxy)propan-2-yl)amino)(phenoxy)phosphoryl)oxy)methyl)cyclopropyl)methyl butyrate] |  | 3100 |  | 
